The values below come from patent publication EP1176134A1, “LIGANDS OF NUCLEAR RECEPTORS PPAR'S” (Nuclear Receptor Research Limited, priority 1999, dated 2000).

The test system of assay [1] is PPARα. Description: transfer (reporter) gene activity assay in transfected COS-1 cells, PPARα. Format: cell-based. To be noted: luciferase reporter, 20 hours. How it is done: Transfection was performed by a standard procedure using a LipofectAMINE reagent from Life Technologies. A 35 mm Petri dish containing 1 x 10^5 cells dispersed in 2 ml of Dulbecco's minimum medium (DMEM) containing 10% fetal bovine serum was incubated in a CO2 incubator for 17 hours. Then, the medium was removed and cells adhered to the Petri dish were washed with phosphate buffered physiological saline (PBS), after which transfection was performed using a LipofectAMINE reagent. […]
(§1) After the medium in the Petri dish was aspirated off, […] of a lysing solution for cultured cells (25 mM Tris phosphate buffer (pH 7.8), 2 mM 1,2-diaminocyclo-hexane-N, N,N',N'-tetraacetate, 10% glycerol, 1% Triton X-100) was added and cells were scraped with rubber policeman. […] The β-galactosidase for monitoring transfection efficiency was measured for fluorescence in a luminometer using Luminescent β-galactosidase detection kit II (Clontech). […]

Assay [2] deals with PPARγ. Description: transfer (reporter) gene activity assay in transfected COS-1 cells, PPARγ. To be noted: luciferase reporter, 20 hours. Format: cell-based. How it is done:
Transfection was performed by a standard procedure using a LipofectAMINE reagent from Life Technologies. A 35 mm Petri dish containing 1 x 10^5 cells dispersed in 2 ml of Dulbecco's minimum medium (DMEM) containing 10% fetal bovine serum was incubated in a CO2 incubator for 17 hours. Then, the medium was removed and cells adhered to the Petri dish were washed with phosphate buffered physiological saline (PBS), after which transfection was performed using a LipofectAMINE reagent. That is, […] of a minimum serum medium OptiMEM (Life Technologies) containing […] of a plasmid bearing the luciferase gene whose expression is controlled by PPAR-responsive elements, […] of a PPAR expression plasmid and 2 mg of a plasmid bearing the β-galactosidase gene for monitoring transfection efficiency was preliminarily mixed with […] of OptiMEM containing 50 ml of LipofectAMINE dissolved therein, and the mixed solution was maintained at room temperature for 15 minutes. A Petri dish containing a mixture of 100 ml of this mixed solution and 400 ml of OptiMEM was incubated in a CO2 incubator at 37°C for 3 hours. The transfection medium was aspirated off from the Petri dish, which was supplied with DMEM containing 10% serum treated with activated carbon and a test compound and incubated at 37°C for 20 hours. […] The medium also contains a solvent for test compounds dimethyl sulfoxide (final concentration 0.1%).
as §1, with “policeman. Cells were completely disrupted by freezing and thawing and then centrifuged at 4°C (15,000 rpm, 2 min), and the supernatants were used as test samples.” for “policeman.”
In general terms: Reporter assays use an easily measured gene product as a stand-in for the process of interest.

Assay [3] concerns immobilized PPARγ receptor. As to the kind of experiment: Surface Plasmon Resonance sensor (BIAcore) binding test. To be noted: BIAcore sensorgram, Fig. 4. An excerpt:
Each group consists of 10 animals.
A Surface Plasmon Resonance sensor (BIAcore column) was used to examine whether or not compounds of the present invention bind immobilized PPARγ receptor.
On the technique in general: In SPR one partner is held on a chip, and binding of the other changes the refractive index at the surface.

Consider `C/C(=C\Cc1c(O)c(Cl)c(C)c(C=O)c1O)CC/C=C(\C)C1=CC(=O)C(C)(C)O1` [Dehydroascofuranone], for which the “Activation of receptors PPARα” value in assay [1] is “++ (Activation peak appears at 10^-5-10^-4M.)”. As to `COc1c(C=O)c(C)c(Cl)c(OCC(=O)O)c1C/C=C(C)/C=C/C1(C)C(C)CCC(=O)C1C` (stereo not drawn) [Compound 27, 4-O-Carboxymethyl-2-O-methylascochlorin], the “Activation of receptors PPARγ” value in assay [2] is “++ (Activation peak appears at 10^-5-10^-4M.)”. In addition, the “binding to immobilized PPARγ receptor (SPR signal)” value in assay [3] was “clearly generates a signal”.
